Experimental data published in publication PMC4588877, “Guanine nucleotide exchange factor 2 for Rab5 proteins coordinated with GLUP6/GEF regulates the intracellular transport of the proglutelin from the Golgi apparatus to the protein storage vacuole in rice endosperm” (Journal of Experimental Botany, 2015).

How the values were obtained:
Rab5c = target: T1, Rab5c (Oryza sativa, UniProt Q75HA2); experiment: GDP/GMP-PNP exchange, Trp intrinsic fluorescence (ex […] nm, em […] nm); type: binding; conditions: 1 µM GST-Rab preloaded with GDP; 0.1 mM GMP-PNP; GST-GLUP6/GEF or GST-Rab5-GEF2 0-1 µM as exchange factor; 20 mM Tris-HCl pH 8.0, 150 mM NaCl, 0.5 mM MgCl2
T1 construct: gene Os03g0666500; GST fusion (pGEX 4T-1), E. coli BL21 (DE3); tag kept
T1 sequence (Q75HA2 1-203): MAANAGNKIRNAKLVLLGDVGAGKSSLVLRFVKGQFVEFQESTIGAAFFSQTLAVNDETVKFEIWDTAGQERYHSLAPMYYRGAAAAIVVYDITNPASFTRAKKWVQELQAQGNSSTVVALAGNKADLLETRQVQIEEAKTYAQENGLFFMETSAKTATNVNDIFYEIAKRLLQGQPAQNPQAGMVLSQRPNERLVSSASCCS

GLUP4/Rab5a = target: T2, GLUP4/Rab5a (Oryza sativa, UniProt Q0ILQ6); experiment: as above; type: binding; conditions: 1 µM GST-Rab preloaded with GDP; 0.1 mM GMP-PNP; GST-Rab5-GEF2 0-1 µM as exchange factor; 20 mM Tris-HCl pH 8.0, 150 mM NaCl, 0.5 mM MgCl2
T2 construct: GST fusion (pGEX 4T-1), E. coli BL21 (DE3); tag kept
T2 sequence (Q0ILQ6 1-203): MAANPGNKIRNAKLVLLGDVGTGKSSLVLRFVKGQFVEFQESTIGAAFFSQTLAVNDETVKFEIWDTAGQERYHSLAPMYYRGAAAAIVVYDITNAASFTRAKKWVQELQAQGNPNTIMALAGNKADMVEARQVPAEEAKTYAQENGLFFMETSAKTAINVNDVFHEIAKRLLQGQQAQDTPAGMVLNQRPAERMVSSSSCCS

Rab5b = target: T3, Rab5b (Oryza sativa, UniProt Q10RN9); experiment: as above; type: binding; conditions: 1 µM GST-Rab preloaded with GDP; 0.1 mM GMP-PNP; GST-GLUP6/GEF or GST-Rab5-GEF2 0-1 µM as exchange factor; 20 mM Tris-HCl pH 8.0, 150 mM NaCl, 0.5 mM MgCl2
T3 construct: gene Os03g0151900; GST fusion (pGEX 4T-1), E. coli BL21 (DE3); tag kept
T3 sequence (Q10RN9 1-199): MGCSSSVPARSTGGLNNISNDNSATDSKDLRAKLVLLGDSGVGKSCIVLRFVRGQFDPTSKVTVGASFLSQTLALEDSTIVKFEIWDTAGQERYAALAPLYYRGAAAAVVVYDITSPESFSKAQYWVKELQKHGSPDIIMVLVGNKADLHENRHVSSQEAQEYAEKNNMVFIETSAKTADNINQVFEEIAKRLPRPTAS

GLUP4/Rab5a (rice) = GLUP4/Rab5a (rice) (UniProt Q0ILQ6); experiment: SPR; BIACORE J; GLUP4/Rab5a immobilised on Sensor Chip CM5; Rab5-GEF2 or GLUP6/GEF (1.5, 3.5, 5, 6.5, 10.5 μM) applied for 120 s at 30 μl/min in 10 mM HEPES-NaOH pH 7.4, 0.15 M NaCl, 0.5 mM MgCl2, 10 mM GDP, 0.1% Triton X-100; apparent KD from association and dissociation curves

| Compound | GDP/GMP-PNP exchange, Trp intrinsic fluorescence (ex 298 nm, em 340 nm) (Rab5c) | GDP/GMP-PNP exchange, Trp intrinsic fluorescence (ex 298 nm, em 340 nm) (GLUP4/Rab5a) | GDP/GMP-PNP exchange, Trp intrinsic fluorescence (ex 298 nm, em 340 nm) (Rab5b) | Kd (GLUP4/Rab5a (rice)) [µM] |
| --- | --- | --- | --- | --- |
| Nc1nc2c(ncn2[C@@H]2O[C@H](COP(=O)(O)OP(=O)(O)NP(=O)(O)O)[C@@H](O)[C@H]2O)c(=O)[nH]1 [GMP-PNP] | Rab5b and Rab5c were activated by GLUP6/GEF in a dose-dependent manner | Rab5-GEF2 activated GLUP4/Rab5a, the plant-specific Rab5b, and Rab5c in a dose-dependent manner | Rab5b and Rab5c were activated by GLUP6/GEF in a dose-dependent manner | – |
| Rab5-GEF2 (natural protein) | – | – | – | 1.7 |
| GLUP6/GEF (natural protein) | – | – | – | 2.1 |
